The source of these data is US11453660B2, “Androgen receptor and glucocorticoid receptor modulators” (ONCOSTELLAE, S.L., priority 2017, dated 2022).

By Kb is commonly meant the affinity of an antagonist, worked out from how it opposes an agonist.

Where only a bound is given, the exact number is not on record here.

The assay concerns the target T1, AR-Receptor (Homo sapiens, UniProt P10275).
T1 sequence (P10275 1-920 Q868H): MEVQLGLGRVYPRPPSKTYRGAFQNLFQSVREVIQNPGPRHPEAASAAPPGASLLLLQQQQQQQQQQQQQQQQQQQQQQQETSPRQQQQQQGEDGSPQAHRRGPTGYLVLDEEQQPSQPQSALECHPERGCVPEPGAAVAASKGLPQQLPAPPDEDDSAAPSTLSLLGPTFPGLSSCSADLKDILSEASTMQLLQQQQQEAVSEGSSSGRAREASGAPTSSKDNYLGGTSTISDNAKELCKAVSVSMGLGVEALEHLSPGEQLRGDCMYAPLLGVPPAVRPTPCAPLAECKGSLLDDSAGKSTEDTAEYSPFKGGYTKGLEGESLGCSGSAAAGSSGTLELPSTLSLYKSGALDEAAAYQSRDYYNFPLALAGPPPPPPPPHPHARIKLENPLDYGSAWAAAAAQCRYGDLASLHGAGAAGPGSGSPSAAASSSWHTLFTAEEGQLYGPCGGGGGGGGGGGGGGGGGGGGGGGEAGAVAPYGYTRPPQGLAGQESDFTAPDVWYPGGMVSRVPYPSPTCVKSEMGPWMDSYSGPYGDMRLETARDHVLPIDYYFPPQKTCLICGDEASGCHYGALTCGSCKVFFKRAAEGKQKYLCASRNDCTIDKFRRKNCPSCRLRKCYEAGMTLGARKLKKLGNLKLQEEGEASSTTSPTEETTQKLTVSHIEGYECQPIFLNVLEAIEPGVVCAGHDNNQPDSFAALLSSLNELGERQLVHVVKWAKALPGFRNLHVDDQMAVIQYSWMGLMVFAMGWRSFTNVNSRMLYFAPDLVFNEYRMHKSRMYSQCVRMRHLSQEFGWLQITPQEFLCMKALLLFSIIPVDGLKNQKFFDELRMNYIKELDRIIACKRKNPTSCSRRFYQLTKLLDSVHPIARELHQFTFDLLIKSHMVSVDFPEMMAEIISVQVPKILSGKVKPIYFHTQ
Description: Functional Assay AR-Receptor (MDA-MB-453 cells, luciferase). The format is cell-based. As to conditions: antagonist effect in the presence of DHT 1 nM, 24 h, luciferase luminescence, read-out: AR antag KB. The method, boiled down: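 MDA-MB-453 cells, 8000/well, were switched to medium with 0.1% FBS and exposed to compounds for 24 h at 37 °C. Antagonist mode used 1 nM DHT. After lysis and a freeze-thaw cycle, luciferase luminescence was read.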
Turning to `CC(=O)C1=C(C)NC(C)=C(C(=O)OCc2cccc(C#N)c2)C1c1csc2ncccc12` (stereo not shown) [Example C72, 3-Cyanobenzyl 5-acetyl-2,6-dimethyl-4-(thieno[2,3-b]pyridin-3-yl)-1,4-dihydropyridine-3-carboxylate], the Kb was at least 1000 nM.

`COC(=O)C1=C(C2CC2)NC(C)=C(C(C)=O)C1c1csc2ncccc12` (stereo not shown) [Example J23, Methyl 5-acetyl-2-cyclopropyl-6-methyl-4-(thieno[2,3-b]pyridin-3-yl)-1,4-dihydropyridine-3-carboxylate]: the Kb is at least 1000 nM.

For `CC(=O)C1=C(C)NC(C)=C(C(=O)OCC2CCOCC2)C1c1csc2ccccc12` (stereo not shown) [Example C2, (Tetrahydro-2H-pyran-4-yl)methyl 5-acetyl-4-(benzo[b]thiophen-3-yl)-2,6-dimethyl-1,4-dihydropyridine-3-carboxylate], the Kb is 100 to 1000 nM.

Turning to `CC(=O)C1=C(C)NC(C)=C(C(=O)OCc2ccccc2)C1c1csc2ccc(F)cc12` (stereo not shown) [Example C41, Benzyl 5-acetyl-4-(5-fluorobenzo[b]thiophen-3-yl)-2,6-dimethyl-1,4-dihydropyridine-3-carboxylate], the Kb fell in the range of 100 to 1000 nM.

For the compound `CC(=O)C1=C(C)NC(C)=C(C(=O)OCc2ccccc2)C1c1csc2ccccc12` (stereo not shown) [Example B6, Benzyl 5-acetyl-4-(benzo[b]thiophen-3-yl)-2,6-dimethyl-1,4-dihydro-pyridine-3-carboxylate], the Kb was 100 to 1000 nM.

Take `COC(=O)C1=C(C)NC(N)=C(C(=O)OCC2CC2)C1c1csc2c(C#N)cc(F)cc12` (stereo not shown) [Example D39, 3-(Cyclopropylmethyl) 5-methyl 2-amino-4-(7-cyano-5-fluorobenzo[b]thiophen-3-yl)-6-methyl-1,4-dihydropyridine-3,5-dicarboxylate]: the Kb was 100 to 1000 nM.

For `CC(=O)C1=C(C)NC(C)=C(C(=O)OCc2ccc(Br)cc2)C1c1csc2ncccc12` (stereo not shown) [Example C65, 4-bromobenzyl 5-acetyl-2,6-dimethyl-4-(thieno[2,3-b]pyridin-3-yl)-1,4-dihydropyridine-3-carboxylate], the Kb lay within 100 to 1000 nM.

For the compound `CC(=O)C1=C(C)NC(C)=C(C(=O)OCc2ccccc2)C1c1csc2ncccc12` (stereo not shown) [Example C39, Benzyl 5-acetyl-2,6-dimethyl-4-(thieno[2,3-b]pyridin-3-yl)-1,4-dihydropyridine-3-carboxylate], the Kb was at least 1000 nM.

As to `CC(=O)C1=C(C)NC(C)=C(C(=O)OCc2cccc(Br)c2)C1c1csc2ncccc12` (stereo not shown) [Example C66, 3-bromobenzyl 5-acetyl-2,6-dimethyl-4-(thieno[2,3-b]pyridin-3-yl)-1,4-dihydropyridine-3-carboxylate], the Kb is below 100 nM.

Take `COC(=O)C1=C(CO)NC(C2CC2)=C(C(=O)OC)C1c1csc2c(C#N)cccc12` (stereo not shown) [Example C118, Dimethyl 4-(7-cyanobenzo[b]thiophen-3-yl)-2-cyclopropyl-6-(hydroxymethyl)-1,4-dihydropyridine-3,5-dicarboxylate]: the Kb fell in the range of 100 to 1000 nM.

Regarding `COC(=O)C1=C(C)NC(C=O)=C(C(=O)OC)C1c1csc2c(C#N)cccc12` (stereo not shown) [Example C119, Dimethyl 4-(7-cyanobenzo[b]thiophen-3-yl)-2-formyl-6-methyl-1,4-dihydropyridine-3,5-dicarboxylate], the Kb was in the range of 100 to 1000 nM.

As to `CC1=C(C(=O)C2CC2)C(c2csc3c(C#N)cccc23)C(C(=O)OCC2CC2)=C(N)N1` (stereo not shown) [Example D31, Cyclopropylmethyl 2-amino-4-(7-cyanobenzo[b]thiophen-3-yl)-5-(cyclopropanecarbonyl)-6-methyl-1,4-dihydropyridine-3-carboxylate], the Kb was 100 to 1000 nM.

With `CC(=O)C1=C(C)NC(N)=C(C(=O)OCc2cccc(F)c2)C1c1csc2c(C#N)cccc12` (stereo not shown) [Example D32, 3-Fluorobenzyl 5-acetyl-2-amino-4-(7-cyanobenzo[b]thiophen-3-yl)-6-methyl-1,4-dihydropyridine-3-carboxylate], the Kb was 100 to 1000 nM.
